Key:
S. epidermidis = test: Further MIC assays, whole spectrum bacteria (CAMHB); type: cell-based; settings: Table 3; Broth: CAMHB
Description: (§1) Further MIC assays were conducted against five different bacteria with Rubbn (n=7, 10, 12, 16), two rigid dinuclear species (bridges bpm and dppm) and Gentamicin—Whole spectrum bacteria MIC test results (Broth: CAMHB).

S. typhimurium = test: as above; type: cell-based; settings: Table 3; Broth: CAMHB
Description: as §1

P. aeruginosa ATCC 27853 = test: MIC determination, broth micro-dilution (CAMHB); type: cell-based, Pseudomonas aeruginosa
Description: (§2) Four strains of bacteria were chosen for the susceptibility tests: S. aureus ATCC 25923; MRSA (a wild clinical strain from the JCU culture collection); E. coli ATCC 25922 and P. aeruginosa ATCC 27853. The bacteria were grown on Mueller Hinton agar (OXOID, cat. No. CM0337) and suspended in growth medium cation-adjusted Mueller Hinton broth (CAMHB, OXOID, cat. No. CM0405). The MIC of each complex was determined in duplicate by standard micro-dilution methodology (British Society for Antimicrobial Chemotherapy Working Party, J. Antimicrob. Chemother., 1991, 27(suppl. D), 22) using gentamicin as the positive control. The ruthenium complexes were dissolved in CAMHB to a stock solution of […] and two-fold diluted in the broth in 96-well plates in a final volume of […] in each well. The same volume […] of bacterial suspension was added in each well making a concentration range of 0.25 mg ml^−1 to 128 mg ml^−1 for each complex. The plates were incubated at 37° C. for 24 h. The results are summarised in Table 1 below, using the following abbreviations: • Rubpm=ΔΔ-[{Ru(phen)2}2(μ-2,2′-bipyrimidine)]Cl4 • Rudppm=ΔΔ-[{Ru(phen)2}2(μ-4,6-bis(2-pyridyl)pyrimidine)]Cl4 • Rubb7trinuclear=Δ*Δ*-[{Ru*(phen)2}(μ-bb7){Ru(phen)}(μ-bb7){Ru*(phen)2}]Cl6 (only the two terminal metal centres are chiral, the two central metal centres are racemic) • Rubb7tetranuclear=Δ*Δ*-[{Ru*(phen)2}(μ-bb7) {Ru(phen)}(μ-bb7){Ru(phen)}(μ-bb7)-{Ru*(phen)2}]Cl8 (only the two terminal metal centres are chiral, the two central metal centres are racemic)
(§3) Further MIC assays and Minimum Bactericidal Concentration (MBC) assays were conducted against Gram-positive and Gram-negative bacterial strains using symmetric and non-symmetric, inert and labile complexes.

VRE = test: Further MIC assays, whole spectrum bacteria (CAMHB); type: cell-based, vancomycin-resistant Enterococcus; settings: Table 3; Broth: CAMHB
Description: as §1

[1] = test system: MRSA (a wild clinical strain from the JCU culture collection); test: MIC determination, broth micro-dilution (CAMHB); type: cell-based, methicillin-resistant S. aureus
Description: as §2, §3

A. baumanii = test: Further MIC assays, whole spectrum bacteria (CAMHB); type: cell-based; parameters: unit not given here; settings: Table 3; Broth: CAMHB
Description: as §1

E. faecalis = test: as above; type: cell-based; parameters: unit not given beside the values; settings: Table 3; Broth: CAMHB
Description: as §1

S. aureus ATCC 25923 = test: MIC determination, broth micro-dilution (CAMHB); type: cell-based, Staphylococcus aureus
Description: as §2, §3

E. coli ATCC 25922 = test: MIC determination, broth micro-dilution (CAMHB); type: cell-based, Escherichia coli
Description: as §2, §3

E. coli = test: Minimum Bactericidal Concentration (MBC) assay (CAMHB); type: cell-based, Escherichia coli; settings: Table 4, all ΔΔ- enantiomers
Description: as §3

S. aureus = test: as above; type: cell-based, Staphylococcus aureus; settings: Table 4, all ΔΔ- enantiomers
Description: as §3

MRSA = test: as above; type: cell-based, methicillin-resistant S. aureus; settings: Table 4, all ΔΔ- enantiomers
Description: as §3

P. aeruginosa = test: as above; type: cell-based, Pseudomonas aeruginosa; settings: Table 4, all ΔΔ- enantiomers
Description: as §3

[2] = type: physicochemical; settings: pH 7.4
Description: The primary difference between the members of the Rubbn family of complexes is the number of methylene groups in the flexible linking chain. […] Lipophilicity is a significant factor affecting the biological activity of most therapeutic compounds, as it relates to the capacity of the drug to penetrate through the cell membrane. The standard octanol-water partition coefficient (logP) was determined for the Rubbn series (F. Lombardo, B. Faller, M. Shalaeva, I. Tetko and S. Tilton, Methods and Principles in Medicinal Chemistry, 2008, 37, 407) parent model mononuclear species ([Ru(phen)2(Me2bpy)]^2+) and the trinuclear and tetranuclear complexes.
The partition coefficients (logP) were measured using the shake flask technique: each ruthenium complex (at both 0.05 and 0.1 mM) was dissolved in the water phase (0.2 M Na2HPO4—NaH2PO4 buffer, pH=7.4) and an equivalent volume of n-octanol was added.
The two phases were mutually saturated by shaking overnight at ambient temperature and then were allowed to separate on standing. The concentration of the metal complex in each phase was determined spectrophotometrically at l=450 nm.

[3] = Table 4, CAMHB, all ΔΔ- enantiomers

Compound	MIC S. epidermidis (S. epidermidis)	MIC S. typhimurium (S. typhimurium)	MIC P. aeruginosa (P. aeruginosa ATCC 27853; Table 1, 37° C., 24 h) [µg/mL]	MIC VRE (VRE)	MIC MRSA ([1]; Table 1, 37° C., 24 h) [µg/mL]	MIC A. baumanii (A. baumanii)	MIC E. faecalis (E. faecalis)	MIC S. aureus (S. aureus ATCC 25923; Table 1, 37° C., 24 h) [µg/mL]	MIC E. coli (E. coli ATCC 25922; Table 1, 37° C., 24 h) [µg/mL]	MIC P. aeruginosa (P. aeruginosa ATCC 27853; [3])	MBC E. coli (E. coli) [µg/mL]	MIC MRSA [1, 3]	MBC S. aureus (S. aureus) [µg/mL]	MBC MRSA (MRSA) [µg/mL]	MIC S. aureus (S. aureus ATCC 25923; [3])	MBC P. aeruginosa (P. aeruginosa) [µg/mL]	MIC E. coli (E. coli ATCC 25922; [3])	logP [2]
[Cl-].[Cl-].[Cl-].[Cl-].c1cc[n+]2c(c1)-c1cc3[n+](c[n+]1[Ru-4]214([n+]2cccc5ccc6ccc[n+]1c6c52)[n+]1cccc2ccc5ccc[n+]4c5c21)[Ru-4]12([n+]4ccccc4-3)([n+]3cccc4ccc5ccc[n+]1c5c43)[n+]1cccc3ccc4ccc[n+]2c4c31 [Rudppm, ΔΔ-[{Ru(phen)2}2(μ-4,6-bis(2-pyridyl)pyrimidine)]Cl4, reference compound]	>128	>128	>128	>128	>128	>128	>128	>128	>128	–	–	–	–	–	–	–	–	–
[Ru(phen)2(μ-bb16)Ru(terpy)Cl](PF6)3 [Ru(μ-bb16)Ru—Cl]	–	–	–	–	–	–	–	–	–	64	4	2	2	2	2	64	4	–
[{Ru(terpy)Cl}2(μ-bb7)] [Rubb7-Cl]	–	–	–	–	–	–	–	–	–	32	8	8	8	16	8	64	8	–
Cc1cc[n+]2c(c1)-c1cc(CCCCCCCCCCCCc3cc[n+]4c(c3)-c3cc(C)cc[n+]3[Ru-4]435([Cl])[n+]4ccccc4-c4cccc([n+]43)-c3cccc[n+]35)cc[n+]1[Ru-4]213([Cl])[n+]2ccccc2-c2cccc([n+]21)-c1cccc[n+]13.F[P-](F)(F)(F)(F)F.F[P-](F)(F)(F)(F)F [Rubb12-Cl, [{Ru(terpy)(Cl)}2(μ-bb12)](PF6)2]	–	–	–	–	–	–	–	–	–	8	2	1	1	1	1	16	2	–
Cc1cc[n+]2c(c1)-c1cc(CCCCCCCc3cc[n+]4c(c3)-c3cc(C)cc[n+]3[Ru-4]435([n+]4cccc6ccc7ccc[n+]3c7c64)[n+]3cccc4ccc6ccc[n+]5c6c43)cc[n+]1[Ru-4]213([Cl])[n+]2ccccc2-c2cccc([n+]21)-c1cccc[n+]13 [Ru(μ-bb7)Ru—Cl, [Ru(phen)2(μ-bb7)Ru(terpy)Cl]]	–	–	–	–	–	–	–	–	–	16	1	8	16	32	8	32	1	–
ΔΔ-[{Ru(phen)2}2(μ-2,2′-bipyrimidine)]Cl4 [Rubpm, reference compound]	>128	>128	>128	>128	>128	>128	>128	>128	>128	–	–	–	–	–	–	–	–	–
Δ*Δ*-[{Ru*(phen)2}(μ-bb7) {Ru(phen)}(μ-bb7){Ru(phen)}(μ-bb7)-{Ru*(phen)2}]Cl8 [Rubb7tetranuclear]	–	–	8	–	8	–	–	8	32	–	–	–	–	–	–	–	–	−1.9
